Measurements published in patent US11066421B1, “Synthetic cinchona alkaloids against cancer” (Ares Pharmaceuticals, LLC, priority 2021, dated 2021).

Tests used:
NALM-6 = test: MTT cytotoxicity assay, NALM-6; type: cell-based, human; details: 48 h, read-out: IC50 against NALM-6
Method: (§1) Human B-lineage acute lymphoblastic leukemia (ALL) cell line NALM-6 and T-lineage ALL/lymphoma cell line MOLT-3 were obtained from American Type Culture Collection (Manassas, Va.). Cell lines were propagated in RPMI 1640 supplemented with 10% FCS, 4 mM glutamine, 100 units/ml penicillin G, and […] streptomycin sulfate. All tissue culture reagents were obtained from Life Technologies Inc. (Life Technologies, Inc., Gaithersburg, Md.). Cell lines were cultivated for a minimum of two passages after thawing prior to experimentation.
(§2) The cytotoxicity of the compounds were tested against human ALL cell lines using MTT assays (Roche Molecular Biochemicals, Indianapolis, Ind.), as described previously R. K. Narla et al., 1998, Clin Cancer Res 4:1405-14). Briefly, exponentially growing tumor cells were seeded into a 96-well plate at a density of 4×10^4 cells/well and incubated in medium containing the cinchona alkaloid compounds at concentrations ranging from 0.7 to 100 μM for 48 h at 37° C. in a humidified 5% CO2 atmosphere. To each well, 10 μL of MTT (final concentration, 0.5 mg/ml) was added, and the plates were incubated at 37° C. for 4 h to allow MTT to form formazan crystals by reacting with metabolically active cells. The formazan crystals were solubilized overnight at 37° C. in a solution containing 10% SDS and 0.01 M HCl. The absorbance of each well was measured in a microplate reader (Labsystems) at 540 nm and a reference wavelength of 690 nm. To translate the A540 values into the number of live cells in each well, the A540 values were compared to those on standard A540 versus cell number curves generated for each cell line. The percentage of survival was calculated using the formula: % survival=[Live cell number (test)/Live cell number (control)]×100. The IC50 values were calculated by nonlinear regression analysis using the graphed Prism Software version 2.0 (GraphPad Software, Inc., San Diego, Calif.).

[1] = tested on: Lewis Lung Carcinoma Cells (LL2); test: Syngeneic mouse model of K-Ras mutant NSCLC; type: in vivo
Method: Lewis Lung Carcinoma Cells (LL2) were purchased from ATCC. These murine NSCLC cells derived from C57BL/6 mice have a heterozygous Kras^G12C mutation (H. Y. Li et al., 2017, Cancer Immunol. Res. 5:767-77; B. Deskin et al., 2020, Translational Oncol. 13:135-45). Eight-9 weeks old, male C57/BL6 mice were inoculated with 1×10^6 LL2 cells in 200 μL PBS that were injected subcutaneously in the right flank. Treatments were initiated immediately after inoculation with LL/2 cells. Control mice were treated with intraperitoneal injections of 50 μL vehicle (DMSO), whereas test mice were treated with either AP-1 or AP-8 at the specified dose levels. Treatments were administered twice daily, 5 days per week for a total of 2 weeks. The clinical predictive value of this mouse model is well established (Kellar A, Egan C, Morris D. Preclinical Murine Models for Lung Cancer: Clinical Trial Applications. Biomed Research International Volume 2015|Article ID 621324|https://doi.org/10.1155/2015/621324).
In the 1st experiment, mice were treated twice daily with intraperitoneal injections of vehicle (50 μL DMSO) (N=10) or AP-1 (125 μg˜5 mg/kg in 50 μL DMSO) (N=7) according to a 5 days on 2 days off weekly schedule for 4 weeks. Mice were monitored daily until tumors became visible on and tumor growth rates were compared between day 16 and day 20 by measuring the size of the tumors with a caliper in three dimensions. Tumor size was expressed as tumor volume in cubic millimeters (mm3). Tumor volumes were calculated using the formula for the volume of a prolate spheroid, V=4/3×3.14×length/2×width/2×depth/2. […] The depicted Whisker plots represent the median and values (Min to Max. Shown all points) for the tumor volume on day 16 (FIG. 11A), day 18 (FIG. 11 FIG. 11B) and day 20 (C), and fold-growth in 48 hours (FIG. 11D; day 18 size: day 16 size) measured in tumors from mice in each group. […] Statistical significance between the two groups is shown by the depicted p-values above the plots were computed using an independent samples T-test.
Similarly, in the 2nd experiment, C57BL/6 mice were inoculated subcutaneously with LL2 cells (1×10^6/inoculum, volume: 200 μL) in the right flank. Mice were treated twice daily with intraperitoneal injections of vehicle (50 μL DMSO) (N=10) or AP-1 (100 μg˜4 mg/kg in 50 μL DMSO) (N=20) according to a 5 days on 2 days off weekly schedule for 2 weeks. Mice were monitored daily until tumors became visible on day 10. Tumor growth was assessed on day 10 and day 14 by measuring the size of the tumors with a caliper in three dimensions. Tumor size was expressed as tumor volume in cubic millimeters (mm^3). Tumor volumes were calculated using the formula for the volume of a prolate spheroid, V=4/3×3.14×length/2×width/2×depth/2. […]
In the 3rd experiment, mice were treated twice daily with intraperitoneal injections of vehicle (50 μL DMSO) (N=10) or AP-1 (125 μg˜5 mg/kg in 50 μL DMSO) (N=18) according to a 5 days on 2 days off weekly schedule for 4 weeks. Mice were monitored daily until tumors became visible on day 13. Tumor growth was re-assessed every other day between day 13 and day 29 by measuring the size of the tumors with a caliper in three dimensions. Tumor size was expressed as tumor volume in cubic millimeters (mm^3). Tumor volumes were calculated using the formula for the volume of a prolate spheroid, V=4/3×3.14×length/2×width/2×depth/2. […]

MOLT-3 = test: MTT cytotoxicity assay, MOLT-3; type: cell-based, human; details: 48 h, read-out: IC50 against MOLT-3
Method: as §1, §2

| Compound | IC50 (NALM-6) | fold-growth in 48 hours (day 18 size: day 16 size) ([1]; 1st experiment, 5 mg/kg i.p. twice daily) | average tumor volume versus vehicle ([1]; 1st experiment, 5 mg/kg i.p. twice daily, day 16 to day 20) | average tumor volume versus vehicle ([1]; 2nd experiment, 4 mg/kg i.p. twice daily, day 10 and day 14) | average tumor volume versus vehicle ([1]; 3rd experiment, 5 mg/kg i.p. twice daily, day 13 to day 29) | IC50 (MOLT-3) | average tumor volume versus vehicle ([1]; 2 mg/kg i.p. twice daily, day 14 to day 25) |
| --- | --- | --- | --- | --- | --- | --- | --- |
| 2,4,6-Tri (9-O-dihydrocinchoninyl)pyrimidine [AP-5] | 1.7 µM |  |  |  |  |  |  |
| C=CC1CN2CCC1CC2C(Oc1cc(OC(c2ccnc3ccccc23)C2CC3CCN2CC3C=C)nc(OC(c2ccnc3ccccc23)C2CC3CCN2CC3C=C)n1)c1ccnc2ccccc12 (stereo not shown) [AP-1, 2,4,6-Tri(9-O-cinchoninyl)pyrimidine] | 3.4 µM | significantly reduced the rapid growth rate of the LL2 tumors | remained significantly smaller than the average tumor volume in vehicle-treated control mice | remained significantly smaller than the average tumor volume in vehicle-treated control mice | remained significantly smaller than the average tumor volume in vehicle-treated control mice | 6.7 µM |  |
| CCC1CN2CCC1CC2C(Oc1cc(OC(c2ccnc3ccc(OC)cc23)C2CC3CCN2CC3CC)nc(OC(c2ccnc3ccc(OC)cc23)C2CC3CCN2CC3CC)n1)c1ccnc2ccc(OC)cc12 (stereo not shown) [AP-8, 2,4,6-Tri (9-O-dihydroquinidinyl)pyrimidine] | 3.7 µM |  |  |  |  | 5.2 µM | remained significantly smaller than the average tumor volume in vehicle-treated control mice |
